Test results published in patent US20050019425A1, “Composition and method” (priority 2001, published 2005).

Columns and labels:
[1] = Clinical signs, food intake, body weight, blood and thyroid hormone measurements in dogs during the 24-week feeding study; assay type: in vivo, dog (Beagle); conditions: diets with 0 to 5 mg added selenium/kg, study period 24 weeks
Method: (§1) Study Design: Thirty-six adult dogs are divided into six groups of six dogs in each group based on their age, gender and body condition score so that the averages of those three criteria are similar among groups. All dogs are given the basal diet for three weeks (pre-treatment period) before they are allocated to one of the experimental diets. The third week of the pre-treatment period is considered as week 0 of the study. Hair growth is measured in weeks 0, 11 and 22 of the study using the method described below. Dogs are fed with the experimental diets for 24 weeks.
(§2) A torula yeast basal diet is used. The basal diet is nutritionally complete and balanced for an adult dog except for selenium. Different amounts of selenium (as selenomethionine) are added into the basal diet to form six experimental diets which contain 0, 0.05, 0.1, 0.5, 1 or 5 mg selenium/kg diet dry matter, respectively. Selenium concentrations in the experimental diets are confirmed by chemical analyses. The analyzed dietary selenium concentrations were 0.034, 0.085, 0.123, 0.527, 1.025 and 5.045 mg/kg dry matter, respectively.

Hair growth of Beagles = assay: Hair growth measurement in adult beagles fed diets with various levels of selenium; assay type: in vivo, dog (Beagle)
Text: Adult beagles of both male and females are used. They are between 1.2 and 3.7 years of age at the start of the experiment.
as §1, §2
Hair Growth Measurement: Hairs in an area of […] on the left side of the body above the hind leg and about 3 cm away from the spinal are clipped with an electronic clipper (Oster Pro™ Model 78400-01A, blade size: 40.1 mm, Oster Elite™). The hair is cut as close to the skin as possible. A tattoo dot of about 1 mm in diameter is made in the center of the clipped area using a tattoo marker (Spaulding Special Electric Tattoo Marker, Model SSEMK). Hair growth is measured by taking photographs from the same clipped area twice using the tattoo dot as a marker. The first photograph is taken right after the clipping and the second photograph four days later. A Polaroid close-up camera (CU-5) and Polaroid 665 films are used to take photographs. A glass slide is attached to the front frame of the camera to press hairs to the skin to minimize errors caused by the angle formed between standing hair and the skin. The image is magnified three times by the camera. Same exposure conditions are used for all dogs in the study. On each day of photograph shooting, a photograph is also taken of a ruler with clear markers under the same conditions and serves as a reference. After exposure, both prints and negatives of the films are treated according to the use directions. The negative films provide sharp and clear images of hairs and are used for hair growth measurement. The negative films are scanned (EPSON Expression 836XL) into a computer. Afterwards, the length of primary hairs in the film is measured using an image analyzing software (BioScan Optimas). The difference of the average hair lengths between the first and the second photographs from the same dog is the hair growth during the four-day period.

C[Se]CC[C@H](N)C(=O)O [selenium, selenomethionine]
Average food intake and body weights [1]: not affected by the dietary treatments
Blood CBC and chemistry measurements, serum total thyroxine and 3,5,3'-triiodothyronine [1]: within the normal ranges
Hair growth (Hair growth of Beagles; dietary Se 0.034 mg/kg dry matter (0 added), Week 0 (pre-treatment, basal diet)): 0.21 mm/day
Hair growth (Hair growth of Beagles; dietary Se 0.034 mg/kg dry matter (0 added), Week 11): 0.12 mm/day
Hair growth (Hair growth of Beagles; dietary Se 0.034 mg/kg dry matter (0 added), Week 22): 0.12 mm/day
Hair growth (Hair growth of Beagles; dietary Se 0.085 mg/kg dry matter (0.05 added), Week 0 (pre-treatment, basal diet)): 0.18 mm/day
Hair growth (Hair growth of Beagles; dietary Se 0.085 mg/kg dry matter (0.05 added), Week 11): 0.15 mm/day
Hair growth (Hair growth of Beagles; dietary Se 0.085 mg/kg dry matter (0.05 added), Week 22): 0.11 mm/day
Hair growth (Hair growth of Beagles; dietary Se 0.123 mg/kg dry matter (0.1 added), Week 0 (pre-treatment, basal diet)): 0.13 mm/day
Hair growth (Hair growth of Beagles; dietary Se 0.123 mg/kg dry matter (0.1 added), Week 11): 0.26 mm/day
Hair growth (Hair growth of Beagles; dietary Se 0.123 mg/kg dry matter (0.1 added), Week 22): 0.20 mm/day
Hair growth (Hair growth of Beagles; dietary Se 0.527 mg/kg dry matter (0.5 added), Week 0 (pre-treatment, basal diet)): 0.15 mm/day
Hair growth (Hair growth of Beagles; dietary Se 0.527 mg/kg dry matter (0.5 added), Week 11): 0.22 mm/day
Hair growth (Hair growth of Beagles; dietary Se 0.527 mg/kg dry matter (0.5 added), Week 22): 0.23 mm/day
Hair growth (Hair growth of Beagles; dietary Se 1.025 mg/kg dry matter (1 added), Week 0 (pre-treatment, basal diet)): 0.18 mm/day
Hair growth (Hair growth of Beagles; dietary Se 1.025 mg/kg dry matter (1 added), Week 11): 0.26 mm/day
Hair growth (Hair growth of Beagles; dietary Se 1.025 mg/kg dry matter (1 added), Week 22): 0.20 mm/day
Hair growth (Hair growth of Beagles; dietary Se 5.045 mg/kg dry matter (5 added), Week 0 (pre-treatment, basal diet)): 0.20 mm/day
Hair growth (Hair growth of Beagles; dietary Se 5.045 mg/kg dry matter (5 added), Week 11): 0.14 mm/day
Hair growth (Hair growth of Beagles; dietary Se 5.045 mg/kg dry matter (5 added), Week 22): 0.13 mm/day
Effect on hair growth of dogs (conclusion) (Hair growth of Beagles; dietary selenium concentrations from 0.1 to about 4.5 mg selenium/kg diet): maximize hair growth of dogs
Rate of hair growth compared between diet groups (Hair growth of Beagles; diets containing 0.1, 0.5 or 1 mg selenium/kg vs 0, 0.05 or 5 mg selenium/kg, week 11 and 22): significantly (p<0.05) higher rate of hair growth
Difference in hair growth among groups (Hair growth of Beagles; week 0 (pre-treatment)): no difference in hair growth among groups
